Experimental data taken from US20240025880A1 (CHIESI FARMACEUTICI S.P.A., priority 2020, published 2024).

Target: T1, h P2X3 (Homo sapiens, UniProt P56373)
T1 sequence (P56373 1-397): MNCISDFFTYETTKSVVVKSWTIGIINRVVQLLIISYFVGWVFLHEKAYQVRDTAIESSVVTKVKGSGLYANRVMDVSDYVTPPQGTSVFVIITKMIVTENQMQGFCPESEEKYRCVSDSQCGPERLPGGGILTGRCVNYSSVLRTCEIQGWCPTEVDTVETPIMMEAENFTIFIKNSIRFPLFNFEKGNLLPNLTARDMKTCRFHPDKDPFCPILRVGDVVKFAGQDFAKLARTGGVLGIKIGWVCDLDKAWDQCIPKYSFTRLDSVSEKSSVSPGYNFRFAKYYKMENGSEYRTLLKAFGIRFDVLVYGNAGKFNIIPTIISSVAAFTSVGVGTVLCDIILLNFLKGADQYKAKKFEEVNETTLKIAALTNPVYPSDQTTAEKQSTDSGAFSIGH
Experiment: In vitro electrophysiology assay for P2X3 (automated whole-cell patch clamp, α,β-MeATP agonist)
Format: cell-based
Conditions: Table 2; 800 nM α,β-MeATP, peak current; read-out: h P2X3 (pIC50 range of activity) (converted)
Description: In Vitro Electrophysiology Assay for P2X3
Cells expressing P2X3 receptors were grown according to standard practice and maintained at 37° C. in a 5% humidified CO2 atmosphere. The cells were seeded into T175 flask 2 days prior to the day of the assay and dissociated from the flasks using TrypLE when grown to confluence of 80-90%. The dissociated cells were resuspended in serum free media at a cell density of 3×10^6 cells/ml and loaded onto the Sophion Qube automated patch-clamp system. The extracellular assay buffer contained 145 mM NaCl, 4 mM KCl, 2 mM CaCl2, 1 mM MgCl2, 10 mM HEPES, and 10 mM glucose at pH 7.4. The intracellular assay solution contained 140 mM CsF, 10 mM NaCl, 10 mM EGTA, 10 mM HEPES at pH 7.2. Agonist stock solutions were prepared in H2O and diluted in bath solution prior to use. All antagonists were prepared as 10 mM stock solutions in DMSO and diluted in bath solution prior to use. All experiments were performed under the whole-cell patch clamp configuration at room temperature with 384 individual cells being voltage clamped at −60 mV simultaneously on the Sophion Qube instrument. Two baseline responses were established with the application of α,β-MeATP (800 nM), with the subsequent agonist applications being washed out using extracellular assay buffer containing 0.5 U/ml apyrase. Following the second agonist application, antagonist was incubated in the absence of α,β-MeATP for 10 minutes. After antagonist preincubation, 800 nM α,β-MeATP and antagonist were co-administered to determine the inhibitory effect of the antagonist. One concentration of an antagonist was assessed against a single cell, with different concentrations of the antagonist applied to other cells on the 384 recording substrate. The control P2X3 current amplitude was taken from the peak current amplitude from the second agonist response prior to preincubation with antagonist. The peak P2X3 current amplitude in the presence of antagonist was used to calculate the inhibitory effect at each concentration of the antagonist according to the following equation:
Percentage inhibition of P2X3=(P2X3 control peak amplitude−P2X3 antagonist peak amplitude)/P2X3 control peak amplitude)*100
Concentration-response curves were constructed from ten different concentrations with each concentration of antagonist tested on at least two individual cells. The concentration of the antagonist to inhibit P2X3 current by 50% (IC50) was determined by fitting the data with the following equation:
Y=a+[(b−a)/(1+10^((log c−x)d)]
Where ‘a’ is minimum response, ‘b’ is maximum response, ‘c’ is IC50 and ‘d’ is Hill slope.

SMILES	IC50 [µM]
C[C@@H](Nc1ncnc2c(OCC(=O)NS(=O)(=O)c3ccccc3)cc(-c3ccc(F)cc3)cc12)c1cnc(C(F)(F)F)nc1 [Example 40, (R)-2-((6-(4-fluorophenyl)-4-((1-(2-(trifluoromethyl)pyrimidin-5-yl)ethyl)amino)quinazolin-8-yl)oxy)-N-(phenylsulfonyl)acetamide]	< 0.316
C[C@@H](Nc1ncnc2c(OCC3(C(=O)O)CC3)cc(-c3ccc(F)cc3)cc12)c1cnc(C(F)(F)F)nc1 [Example 41, (R)-1-(((6-(4-fluorophenyl)-4-((1-(2-(trifluoromethyl)pyrimidin-5-yl)ethyl)amino)quinazolin-8-yl)oxy)methyl)cyclopropane-1-carboxylic acid]	0.316 to 3.16
C[C@@H](Nc1ncnc2c(OCC(=O)NC3(C(=O)O)CC3)cc(-c3ccc(F)cc3)cc12)c1cnc(C(F)(F)F)nc1 [Example 44, (R)-1-(2-((6-(4-fluorophenyl)-4-((1-(2-(trifluoromethyl)pyrimidin-5-yl)ethyl)amino)quinazolin-8-yl)oxy)acetamido)cyclopropane-1-carboxylic acid]	0.316 to 3.16
Cc1ccc(CNc2ncnc3c(OCC(=O)N[C@H]4CCC[C@H]4C(=O)O)cc(-c4ccc(F)cc4)cc23)nn1 [Example 45, (1R,2S)-2-(2-((6-(4-fluorophenyl)-4-(((6-methylpyridazin-3-yl)methyl)amino)quinazolin-8-yl)oxy)acetamido)cyclopentane-1-carboxylic acid]	< 0.316
CCOC(=O)[C@H]1CCC[C@H]1NC(=O)COc1cc(-c2ccc(F)cc2)cc2c(NCc3ccc(C)nn3)ncnc12 [Example 46, Ethyl (1S,2R)-2-(2-((6-(4-fluorophenyl)-4-(((6-methylpyridazin-3-yl)methyl)amino)quinazolin-8-yl)oxy)acetamido)cyclopentane-1-carboxylate]	0.316 to 3.16
C[C@@H](Nc1ncnc2c(OCC3(C(=O)O)CCCCC3)cc(-c3ccc(F)cc3)cc12)c1cnc(C(F)(F)F)nc1 [Example 48, (R)-1-(((6-(4-fluorophenyl)-4-((1-(2-(trifluoromethyl)pyrimidin-5-yl)ethyl)amino)quinazolin-8-yl)oxy)methyl)cyclohexane-1-carboxylic acid]	0.316 to 3.16
Cc1cnc(-c2cc(OCC(=O)NS(=O)(=O)c3ccccc3)c3ncnc(NCc4ccc(C)nn4)c3c2)nc1 [Example 49, Ammonium (2-((4-(((6-methylpyridazin-3-yl)methyl)amino)-6-(5-methylpyrimidin-2-yl)quinazolin-8-yl)oxy)acetyl)(phenylsulfonyl) amide]	< 0.316
Cc1ccc(CNc2ncnc3c(OCC4(C)COC4)cc(-c4ccc(F)cc4)cc23)nn1 [Example 50, 6-(4-fluorophenyl)-8-[(3-methyloxetan-3-yl)methoxy]-N-[(6-methylpyridazin-3-yl)methyl]quinazolin-4-amine]	< 0.316
Cc1ccc(CNc2ncnc3c(OCC4(C(F)(F)F)CC4)cc(-c4ccc(F)cc4)cc23)nn1 [Example 51, 6-(4-fluorophenyl)-N-[(6-methylpyridazin-3-yl)methyl]-8-[[1-(trifluoromethyl)cyclopropyl]methoxy]quinazolin-4-amine]	0.316 to 3.16
Cc1ccc(CNc2ncnc3c(OC4CN(C(=O)OC(C)(C)C)C4)cc(-c4ccc(F)cc4)cc23)nn1 [Example 52, tert-butyl 3-[6-(4-fluorophenyl)-4-[(6-methylpyridazin-3-yl)methylamino]quinazolin-8-yl]oxyazetidine-1-carboxylate]	0.316 to 3.16
Cc1ccc(CNc2ncnc3c(OCC#N)cc(-c4ccc(F)cc4)cc23)nn1 [Example 53]	< 0.316
CON(C)C(=O)COc1cc(-c2ccc(F)cc2)cc2c(NCc3ccc(C)nn3)ncnc12 [Example 54, 2-[6-(4-fluorophenyl)-4-[(6-methylpyridazin-3-yl)methylamino]quinazolin-8-yl]oxy-N-methoxy-N-methyl-acetamide]	< 0.316
Cc1ccc(CNc2ncnc3c(OCCOCCO)cc(-c4ccc(F)cc4)cc23)nn1 [Example 55]	< 0.316
Cc1ccc(CNc2ncnc3c(OC4CCN(C)C4=O)cc(-c4ccc(F)cc4)cc23)nn1 (stereo not drawn) [Example 56, 3-[6-(4-fluorophenyl)-4-[(6-methylpyridazin-3-yl)methylamino]quinazolin-8-yl]oxy-1-methyl-pyrrolidin-2-one]	0.316 to 3.16
Cc1ccc(CNc2ncnc3c(OCc4ncco4)cc(-c4ccc(F)cc4)cc23)nn1 [Example 57, 6-(4-fluorophenyl)-N-[(6-methylpyridazin-3-yl)methyl]-8-(oxazol-2-ylmethoxy)quinazolin-4-amine]	< 0.316
Cc1ccc(CNc2ncnc3c(OCc4noc(C)n4)cc(-c4ccc(F)cc4)cc23)nn1 [Example 58, 6-(4-fluorophenyl)-8-[(5-methyl-1,2,4-oxadiazol-3-yl)methoxy]-N-[(6-methylpyridazin-3-yl)methyl]quinazolin-4-amine]	< 0.316
CCc1noc(COc2cc(-c3ccc(F)cc3)cc3c(NCc4ccc(C)nn4)ncnc23)n1 [Example 59, 8-[(3-ethyl-1,2,4-oxadiazol-5-yl)methoxy]-6-(4-fluorophenyl)-N-[(6-methylpyridazin-3-yl)methyl]quinazolin-4-amine]	< 0.316
Cc1ccc(CNc2ncnc3c(OCc4nnc(C5CC5)s4)cc(-c4ccc(F)cc4)cc23)nn1 [Example 60, 8-[(5-cyclopropyl-1,3,4-thiadiazol-2-yl)methoxy]-6-(4-fluorophenyl)-N-[(6-methylpyridazin-3-yl)methyl]quinazolin-4-amine]	< 0.316
Cc1ccc(CNc2ncnc3c(OCC(=O)NCC(F)(F)F)cc(-c4ccc(F)cc4)cc23)nn1 [Example 61, 2-[6-(4-fluorophenyl)-4-[(6-methylpyridazin-3-yl)methylamino]quinazolin-8-yl]oxy-N-(2,2,2-trifluoroethyl)acetamide]	0.316 to 3.16
Cc1ccc(CNc2ncnc3c(OC4COC4)cc(-c4ccc(F)cc4)cc23)nn1 [Example 63, 6-(4-fluorophenyl)-N-((6-methylpyridazin-3-yl)methyl)-8-(oxetan-3-yloxy)quinazolin-4-amine]	0.316 to 3.16
COC(=O)N1CCC(COc2cc(-c3ccc(F)cc3)cc3c(NCc4ccc(C)nn4)ncnc23)CC1 [Example 64, Methyl 4-[[6-(4-fluorophenyl)-4-[(6-methylpyridazin-3-yl)methylamino]quinazolin-8-yl]oxymethyl]piperidine-1-carboxylate]	0.316 to 3.16
COC(=O)N1CCCC(COc2cc(-c3ccc(F)cc3)cc3c(NCc4ccc(C)nn4)ncnc23)C1 (stereo not drawn) [Example 66, Methyl 3-[6-(4-fluorophenyl)-4-[(6-methylpyridazin-3-yl)methylamino]quinazolin-8-yl]oxymethyl]piperidine-1-carboxylate]	0.316 to 3.16
COC(=O)N1CCC(COc2cc(-c3ccc(F)cc3)cc3c(NCc4ccc(C)nn4)ncnc23)C1 (stereo not drawn) [Example 67, Methyl 3-[[6-(4-fluorophenyl)-4-[(6-methylpyridazin-3-yl)methylamino]quinazolin-8-yl]oxymethyl]pyrrolidine-1-carboxylate]	0.316 to 3.16

Same assay, conditions: comparative example; read-out: activity on receptor P2X3 expressed as pIC50 (converted)

SMILES	IC50 [µM]
O=C(NC1CCOc2ccc(-c3ccc(F)cc3)cc21)c1cnc(C(F)(F)F)nc1 (stereo not drawn) [comparative Example A, N-(6-(4-fluorophenyl)chroman-4-yl)-2-(trifluoromethyl)pyrimidine-5-carboxamide, reference compound]	> 31.6
